Assay results from publication PMC9460261, “Need for a Standardized Translational Drug Development Platform: Lessons Learned from the Repurposing of Drugs for COVID-19” (Microorganisms, 2022).
Structures can show the parent of a compound that is named as a salt. Where two headings read alike, the source gives them in different places.

Assays:
[1] = Population PK model from satellite PK studies in hamster; settings: for CL/F, elimination clearance, population estimate (%RSE) / Q/F (Q1/F), inter-compartment clearance, population estimate (%RSE) / VC/F, central volume of distribution, population estimate (%RSE) / VP/F, peripheral volume of distribution, population estimate (%RSE) / KA, absorption rate constant, population estimate (%RSE): hamster of the study's median weight (80-131 g)
[2] = Binding to antiviral assay medium by Rapid Equilibrium Dialysis; settings: for fraction unbound: bovine
[3] = Plasma protein binding, hamster; settings: for fraction unbound: hamster, plasma
[4] = Plasma protein binding, human; settings: for fraction unbound: human, plasma
SARS-CoV-2 [5] = type: in vivo, Syrian hamster
SARS-CoV-2 in Vero cells [6] = test: microbe, parasite or virus in culture; settings: Severe acute respiratory syndrome coronavirus 2, Vero
[7] = Population PK model in human (digitized literature data); settings: human; modelled from digitized data; ref 68 (ambroxol), 71-73 (cepharanthine), 78 (fluvoxamine), 80 (molnupiravir)
SARS-CoV-2 in Vero cells [8] = system: SARS-CoV-2 in Vero cells
SARS-CoV-2 [9] = settings: cited from earlier work
[10] = system: SARS-CoV-2 in Calu-3 cells; test: microbe, parasite or virus in culture
[11] = system: SARS-CoV-2 in Calu-3 cells
in vitro = settings: African green monkey, Selectivity Index (Vero cells)
[12] = cited from earlier work
[13] = equilibrium dialysis, DNDi in-house
[14] = antiviral assay medium (DMEM with 2% v/v FCS)
[15] = doses, frequency, duration as in Table 1
[16] = read-out: VERO cells Average IC50, With Pgp pump inhibitor, 2 μM CP-100356, * one replicate only
[17] = read-out: VERO cells Average IC50, Without Pgp pump inhibitor, * one replicate only
[18] = Severe acute respiratory syndrome coronavirus 2, Calu-3, read-out: Calu-3 cells Average IC50
[19] = host cell Calu-3, read-out: SARS-CoV-2 EC50
[20] = host cell Vero, ref 25, read-out: SARS-CoV-2 EC50

| Structure (SMILES) | CL/F, elimination clearance, population estimate (%RSE) [1] | Q/F (Q1/F), inter-compartment clearance, population estimate (%RSE) [1] | VC/F, central volume of distribution, population estimate (%RSE) [1] | VP/F, peripheral volume of distribution, population estimate (%RSE) [1] | KA, absorption rate constant, population estimate (%RSE) [1] | fraction unbound [2, 14] | Activity in SARS-CoV-2 Hamster Model (SARS-CoV-2 [5]; [15]) | IC50 (SARS-CoV-2 in Vero cells [6]; [16]) [µM] | IC50 (SARS-CoV-2 in Vero cells [6]; [17]) [µM] | fraction unbound [3] | fraction unbound [4] | Activity In Vitro; Potency EC50 or IC50 < 10 µM; Vero Cells (SARS-CoV-2 in Vero cells [8]) | IC50 [10, 18] [µM] | Activity In Vitro; Potency EC50 or IC50 < 10 µM; Calu-3 Cells [11] | selectivity ratio (in vitro; Without Pgp pump inhibitor) | also measured |
| --- | --- | --- | --- | --- | --- | --- | --- | --- | --- | --- | --- | --- | --- | --- | --- | --- |
| C[C@@]1(F)[C@H](O)[C@@H](CO)O[C@H]1n1cnc2c(=O)[nH]c(N)nc21 [AT-273] | 5.77 (33.1) mL/h | 6730 (12.2) mL/h | 49200 (13.2) mL | 84800 (27.3) mL |  |  |  |  |  |  |  |  |  |  |  | KTR, population estimate (%RSE) ([1]; hamster 119 g): 12.3 (50.5) h-1; Fraction unbound in assay medium ([2]; 2% serum DMEM media, DNDi in-house data): 99.1%; Fraction unbound in plasma, hamster [3, 13]: 95.5%; Fraction unbound in plasma, human [4, 13]: 57.8% |
| Nc1c(Br)cc(Br)cc1CN[C@H]1CC[C@H](O)CC1 [Ambroxol, ambroxol] | 4860 (11.3%) mL/h | 1180 (22.5%) mL/h | 12000 (10.9%) mL | 16100 (31.6%) mL | 4.76 (15.1%) h-1 | 0.954 | No | > 50 | > 50 | 0.125 | 0.238 | No (Potency EC50 or IC50 < 10 µM) | > 50 | No (Potency EC50 or IC50 < 10 µM) |  | Dose effect on F (power) ([1]; covariate, hamster model): 0.689 (11.1%); CL/F, population estimate (%RSE) [7]: 41.4 (3.0%) L/h; EC50 (SARS-CoV-2 [9]; host cell Vero E6, ref 47, read-out: SARS-CoV-2 EC50): > 30 µM |
| CCN(CC)Cc1cc(Nc2ccnc3cc(Cl)ccc23)ccc1O [Amodiaquine, amodiaquine] | 4390 (7.44%) mL/h |  | 158 (15.3%) mL |  | 0.0784 (6.52%) h-1 | 0.878 | No (parent) | 2.6 | 8.8 | 0.096 | 0.067 | Yes (Potency EC50 or IC50 < 10 µM) | > 50 | No (Potency EC50 or IC50 < 10 µM) | > 5.7 | Route effect (SC) on CL/F ([1]; covariate, hamster model): -85.3 (1.81%); Route effect (SC) on KA ([1]; covariate, hamster model): -20.4 (19.8%); selectivity ratio (in vitro; With Pgp pump inhibitor): > 19; IC50 (SARS-CoV-2 in Vero cells [6]; read-out: EC50 or IC50, Vero Cells): ~10 µM; EC50 (SARS-CoV-2 [9]; [19]): > 50 µM; EC50 (SARS-CoV-2 [9]; host cell Huh7.5, read-out: SARS-CoV-2 EC50): 0.6 µM; EC50 (SARS-CoV-2 [9]; host cell Vero CCL81, read-out: SARS-CoV-2 EC50): 1.6 µM; EC50 (SARS-CoV-2 [9]; host cell Vero E6, ref 29, read-out: SARS-CoV-2 EC50): 10 µM; EC50 (SARS-CoV-2 [9]; host cell Vero E6, ref 30, read-out: SARS-CoV-2 EC50): 4.9 µM; EC50 (SARS-CoV-2 [9]; [20]): 5.2 µM |
| COC(=O)N[C@H](C(=O)N[C@@H](Cc1ccccc1)[C@@H](O)CN(Cc1ccc(-c2ccccn2)cc1)NC(=O)[C@@H](NC(=O)OC)C(C)(C)C)C(C)(C)C [Atazanavir, atazanavir] |  |  |  |  |  | 0.348 | no activity | > 50 | 45.5 | 0.2 |  |  | 21 |  | > 2.2 | EC50 (SARS-CoV-2 [9]; atazanavir and ATZ/ritonavir combination, read-out: EC50 in infected A549 lung epithelia cells): 0.6 µM; EC50 (SARS-CoV-2 [9]; host cell A549, read-out: SARS-CoV-2 EC50): 0.2 µM; EC50 (SARS-CoV-2 [9]; host cell Vero E6, ref 23, read-out: SARS-CoV-2 EC50): 2 µM; EC50 (SARS-CoV-2 [9]; host cell Vero E6, ref 24, read-out: SARS-CoV-2 EC50): 9.36 µM; EC50 (SARS-CoV-2 [9]; [20]): > 50 µM |
| CNCCC(Oc1ccc(C(F)(F)F)cc1)c1ccccc1 (centres unmarked) [Fluoxetine, fluoxetine] | 447 (7.0) mL/h |  | 3530 (6.5) mL |  | 5.34 (11.7) h-1 | 0.682 |  |  |  | 0.051 | 0.048 | Yes ^T (key: Yes: Potency EC50 or IC50 < 10 µM; No: Potency EC50 or IC50 < 10 µM) |  | No (key: Yes: Potency EC50 or IC50 < 10 µM; No: Potency EC50 or IC50 < 10 µM) |  | Dose effect on FFP (power) ([1]; covariate, hamster model): -0.0175 (13.7); Activity in SARS-CoV-2 Hamster Model (SARS-CoV-2 [5]; hamster, in vivo): No; IC50 (SARS-CoV-2 in Vero cells [6]; read-out: VERO cells Average IC50, With Pgp pump inhibitor): 5.6 µM; IC50 (SARS-CoV-2 in Vero cells [6]; read-out: VERO cells Average IC50, Without Pgp pump inhibitor): 7.7 µM; Toxicity observed (^T), Vero Cells (SARS-CoV-2 in Vero cells [8]): Yes ^T |
| COCCCC/C(=N\OCCN)c1ccc(C(F)(F)F)cc1 [Fluvoxamine maleate, fluvoxamine maleate] | 9500 (10.8) mL/h |  | 16500 (12.8) mL |  |  | 0.771 | No | 32.6 | 26 | 0.281 | 0.254 | No (key: Yes: Potency EC50 or IC50 < 10 µM; No: Potency EC50 or IC50 < 10 µM) | > 50 | No (key: Yes: Potency EC50 or IC50 < 10 µM; No: Potency EC50 or IC50 < 10 µM) |  | Dose effect on F (power) ([1]; covariate, hamster model): 1.21 (7.4); CL/F, population estimate (%RSE) [7]: 0.148 (3.0) L/h |
| Cc1c(O)cccc1C(=O)N[C@@H](CSc1ccccc1)[C@H](O)CN1C[C@H]2CCCC[C@H]2C[C@H]1C(=O)NC(C)(C)C [Nelfinavir, nelfinavir] | 613 (4.2) mL/h |  | 547 (15.3) mL |  |  | 0.243 | No ^e | 1.6 | 5.5 | 0.001 | 0.001 | Yes (Potency EC50 or IC50 < 10 µM) | 12.8 | Yes (Potency EC50 or IC50 < 10 µM) | > 9 | Dose effect on F (linear) ([1]; covariate, hamster model): 0.384 (32); Dose effect on KA (linear) ([1]; covariate, hamster model): -0.801 (3.7); Lung inflammation and disease outcome (SARS-CoV-2 [5]; hamster, in vivo): diminution of lung inflammation; Virus load (SARS-CoV-2 [5]; hamster, in vivo): no effect on viral load was detected; selectivity ratio (in vitro; With Pgp pump inhibitor): > 32; Toxicity observed (^T), Vero Cells (SARS-CoV-2 in Vero cells [8]): Yes ^T; EC50 (SARS-CoV-2 [9]; host cell Vero E6, ref 41, read-out: SARS-CoV-2 EC50): 2.89 µM; EC50 (SARS-CoV-2 [9]; host cell Vero, ref 40, read-out: SARS-CoV-2 EC50): 0.048 µM; EC50 (SARS-CoV-2 [9]; host cell VeroE6/TMPRSS2, read-out: SARS-CoV-2 EC50): 0.77 µM; IC50 ([10]; Severe acute respiratory syndrome coronavirus 2, Calu-3, read-out: EC50 or IC50, Calu-3 Cells (borderline)): 13 µM |
| CC(C)OC(=O)[C@H](C)N[P@](=O)(OC[C@H]1O[C@@H](n2ccc(=O)[nH]c2=O)[C@](C)(F)[C@@H]1O)Oc1ccccc1 [Sofosbuvir, sofosbuvir] | 122000 (14.4) mL/h | 139000 (17.2) mL/h | 46600 (29.9) mL | 1490000 (27.9) mL | 0.622 (15.9) h-1 |  | No | > 50 | > 50 |  |  | No (Potency EC50 or IC50 < 10 µM) | > 50 | No (Potency EC50 or IC50 < 10 µM) |  | fraction unbound [2]: 0.716; Activity in SARS-CoV-2 Hamster Model (SARS-CoV-2 [5]; doses, frequency, duration as in Table 1, listed as sofosbuvir): no activity; EC50 (SARS-CoV-2 [9]; [19]): 7.3 µM; EC50 (SARS-CoV-2 [9]; host cell HuH-7, read-out: SARS-CoV-2 EC50): 5.1 µM; EC50 (SARS-CoV-2 [9]; host cell Vero, ref 26, read-out: SARS-CoV-2 EC50): > 10 µM |
| CCC(CC)COC(=O)[C@H](C)N[P@](=O)(OC[C@H]1O[C@@](C#N)(c2ccc3c(N)ncnn23)[C@H](O)[C@@H]1O)Oc1ccccc1 [remdesivir] |  |  |  |  |  |  |  |  |  |  |  |  |  |  |  | Effect on lung infectious titers (SARS-CoV-2 [5]; hamster, in vivo): no significant effect; Effect on lung viral RNA yields (SARS-CoV-2 [5]; hamster, in vivo): little significant effect; Plasma stability, half-life ([12]; genetically modified mouse (Cesc-/- knockout)): around 25 min; Plasma stability, half-life ([12]; mice): < 5 min |
